According to patent publication US8314060B2, “Peptide conjugated anti-cancer prodrugs” (BioSight Ltd., priority 2000, dated 2012):
Non-standard residues stand in square brackets, D forms with d. Residues, ends and D or L forms follow the SMILES beside them. No end group written: not given here. *: point of attachment. Phe(4-N(CH2CH2Cl)2) = N[C@@H](Cc1ccc(N(CCCl)CCCl)cc1)C(=O)O; Chlorambucil = O=C(CCCc1ccc(N(CCCl)CCCl)cc1)*

Columns and labels:
[1] = tested on: melanoma cells; experiment: MTT assay for estimation of toxicity, melanoma cells; type: cell-based; settings: Homo sapiens, 72 hours, FIG. 5B
Experimental: (§1) Human melanoma cells (WW-94) were grown in 50% DMEM/50% F-12 medium supplemented with 10% fetal calf serum and antibiotics.
(§2) HUVEC or melanoma cells were seeded in 96-well ELISA dish at a concentration of 10,000-20,000 cells/well, and various concentrations of the prodrug 1 were added to the wells as described in Example 17. As a control, Melphalan was added under the same experimental conditions. After 72 hours the medium was aspirated, and DMEM containing 5% FCS and 0.5 mg/ml MTT (an indicator of cell viability) was added. The cells were incubated for 2-4 hours at 37° C. and 5% CO2. At the end of the incubation the cells were washed with phosphate buffer saline (PBS), and dissolved with DMSO. The results were analysed using Techan ELISA reader equipped with a 570 nm filter.

[2] = tested on: HUVEC; experiment: MTT assay for estimation of toxicity, HUVEC (normal cells); type: cell-based, human
Experimental: (§3) Human umbilical vein-derived endothelial cells (HUVEC) were prepared from umbilical veins and cultured as described previously. The HUVE cells were grown in M199 medium supplemented with 20% fetal calf serum, vitamins, 1 ng/ml hbFGF, and antibiotics.
as §2

[3] = tested on: Human umbilical vein-derived endothelial cells (HUVEC); experiment: Tissue culture cell counting (cell coulter) after 72 hours, HUVEC (normal cells); type: cell-based
Experimental: as §3
(§4) To determine the biological activity of the drugs, HUVEC (normal cells) or melanoma (cancer) cells were seeded in 24-well dish at a concentration of 10,000-20,000 cells/well, and increasing concentrations of the prodrug 3-Peptide I-Chlorambucil (P-CAC) were added to the wells. As controls, either Cholorambucil or the peptide carrier was added under the same experimental conditions. After 72 hours the cells were washed with phosphate buffer saline (PBS), suspended with 0.5% EDTA/PBS, and counted using cell coulter (Electronics ZM). Cell viability was verified by trypan-blue staining and hemocytometer analysis. IC50 indicates the concentration of the drug measured at 50% of the cell death.

[4] = tested on: Human melanoma cells (WW-94); experiment: Tissue culture cell counting (cell coulter) after 72 hours, melanoma cells; type: cell-based; settings: melanoma (cancer) cells, FIG. 4A, read-out: IC50 (concentration of the drug measured at 50% of the cell death)
Experimental: as §1, §4

[5] = tested on: MMPs secreted by cancer cells (conditioned medium of human melanoma cells HMCM or human breast cancer cells BCCM); experiment: In-vitro release of Chlorambucil from the peptide carrier by cancer cell conditioned medium; type: biochemical; settings: PBS, 2 hours at 37° C., FIG. 6
Experimental: To find out whether proteases are secreted to the conditioned medium of cancer cells, breast cancer cells or melanoma cells were grown to sub-confluence in a 10 cm dish. The cells were washed with PBS, and further incubated with serum free medium. HUVE cells were grown to confluence at 10 cm dish. The cells were washed with M-199 medium, and conditioned with M-199 with 1% heat inactivated serum. The conditioned medium was collected after 24 hours.
(§5) In-vitro release of Chlorambucil from the peptide carrier was carried out in a liquid phase as described in Example 19. Peptide I-Chlorambucil was dissolved in PBS, and incubated for 2 hours at 37° C. in the absence or presence of purified MMPs, or in the presence of conditioned medium of either human melanoma cells (HMCM) or human breast cancer cells (BCCM).
(§6) At the end of the incubation the reaction mixture was incubated with heparin-sepharose (30 minutes at 0° C.). The supernatant was collected, and the release of free chlorambucil was monitored by spectrophotometer at a wavelengh of 305 nm.

[6] = tested on: purified MMPs; experiment: In-vitro release of Chlorambucil from the peptide carrier by purified MMPs; type: biochemical
Experimental: as §5, §6

N[C@@H](Cc1ccc(N(CCCl)CCCl)cc1)C(=O)O [Melphalan, reference compound]
IC50 [1]: 0.07 µM | IC50 ([2]; Homo sapiens, HUVEC, HUVE cells, 72 hours, FIG. 5A): 0.1 µM

CC[C@H](C)[C@H](NC(=O)CNC(=O)[C@H](CC(C)C)NC(=O)[C@H](CC(C)C)NC(=O)CNC(=O)[C@H](Cc1ccc(O)cc1)NC(=O)[C@@H](N)Cc1ccc(N(CCCl)CCCl)cc1)C(=O)N[C@@H](C)C(=O)NCC(=O)N1CCC[C@H]1C(=O)N1CCC[C@H]1C(=O)NCC(=O)N1CCC[C@H]1C(=O)N1CCC[C@H]1C(=O)N[C@@H](CC(C)C)C(=O)N[C@@H](Cc1ccc(O)cc1)C(=O)N[C@@H](CCCCN)C(=O)N[C@@H](CCCCN)C(=O)N[C@H](C(=O)N[C@H](C(=O)N[C@@H](CCCCN)C(=O)N[C@@H](CCCCN)C(=O)N[C@@H](CC(C)C)C(=O)N[C@@H](CC(C)C)C(=O)N[C@@H](CCC(N)=O)C(=O)N[C@@H](CO)C(=O)O)[C@@H](C)CC)[C@@H](C)CC [Prodrug 1, Peptide I-Melphalan] (H-[Phe(4-N(CH2CH2Cl)2)]YGLLGIAGPPGPPLYKKIIKKLLQS-OH; N-terminus and C-terminus assumed)
times less toxic to normal cells ([2]; HUVE cells versus melanoma cells): 7 times

YGLLGIAGPPGPPLYKKIIKKLLQS [peptide carrier]
toxicity to HUVEC ([3]; HUVEC, 72 hours, FIG. 4): not toxic

O=C(O)CCCc1ccc(N(CCCl)CCCl)cc1 [Chlorambucil, reference compound]
IC50 ([3]; Homo sapiens, HUVEC, HUVE (normal) cells, 72 hours, cell counting, FIG. 4B, read-out: IC50 (concentration of the drug measured at 50% of the cell death)): 2 µM | IC50 [4]: 2 µM

CC[C@H](C)[C@H](NC(=O)CNC(=O)[C@H](CC(C)C)NC(=O)[C@H](CC(C)C)NC(=O)CNC(=O)[C@H](Cc1ccc(O)cc1)NC(=O)CCCc1ccc(N(CCCl)CCCl)cc1)C(=O)N[C@@H](C)C(=O)NCC(=O)N1CCC[C@H]1C(=O)N1CCC[C@H]1C(=O)NCC(=O)N1CCC[C@H]1C(=O)N1CCC[C@H]1C(=O)N[C@@H](CC(C)C)C(=O)N[C@@H](Cc1ccc(O)cc1)C(=O)N[C@@H](CCCCN)C(=O)N[C@@H](CCCCN)C(=O)N[C@H](C(=O)N[C@H](C(=O)N[C@@H](CCCCN)C(=O)N[C@@H](CCCCN)C(=O)N[C@@H](CC(C)C)C(=O)N[C@@H](CC(C)C)C(=O)N[C@@H](CCC(N)=O)C(=O)N[C@@H](CO)C(=O)O)[C@@H](C)CC)[C@@H](C)CC [Prodrug 3, Peptide I-Chlorambucil] (Chlorambucil-YGLLGIAGPPGPPLYKKIIKKLLQS-OH)
times less toxic to normal cells ([3]; HUVE cells versus melanoma cells, cell counting): 30 times | release of free chlorambucil from the peptide carrier [5]: can be released | effect of heparin on release of the chemotherapeutic agent from the peptide carrier ([6]; presence of 10 μg/ml heparin, 2 hours incubation): inhibited the release | release of free chlorambucil from the peptide carrier ([6]; purified MMPs, PBS, 2 hours at 37° C., read at 305 nm, FIG. 6): can be released
